Measured values reported in patent US20110189174A1, “COMPOSITIONS AND METHODS FOR TREATING, REDUCING, AMELIORATING, ALLEVIATING, OR INHIBITING PROGRESSION OF, PATHOGENIC OCULAR NEOVASCULARIZATION” (priority 2010, published 2011).

Columns and labels:
[1] = Clinical ophthalmic examination in monkeys (vitreal cell scores, anterior chamber inflammation); type: in vivo, cynomolgus monkeys (Macaca fascicularis); settings: for Vitreal cell score: number of eyes with grade 0 / Vitreal cell score: number of eyes with grade 1 / Vitreal cell score: number of eyes with grade 2 / Vitreal cell score: number of eyes with grade 3 / Vitreal cell score: number of eyes with grade 4 / Vitreal cell score: number of eyes with grade Trace: intravitreal days 1 and 15, cells not distinguishable from dispersed drug
Experimental: Once the phase Ib study was completed, and it was established that the drug suspension in oil would not interfere with either laser administration, evaluation of CNV or cause adverse effects, phase II was initiated. On days 1, and 15 both eyes of monkeys received 50 μL of Lucentis (0.5 mg/eye), vehicle (0 mg/eye), BOL-303050-X (1.5 mg/eye), BOL-303054-X (1.5 mg/eye) or BOL-303055-X (1.5 mg/eye) (Table 2). Intravitreous injection was performed for each by eye aiming towards mid-vitreous body. Dosing in the right eye was alternated for successive doses (as applicable) at approximately the 11 o'clock and 10 o'clock positions. Dosing in the left eye was alternated for successive doses (as applicable) from approximately the 1 o'clock and 2 o'clock positions.
Animals were examined at baseline, on days 1, 3, 7, 15, and 31 of Dosing Phase II and on the day of scheduled sacrifice (day 38). On days of dose administration the ophthalmic examination was done prior to dosing.

[2] = tested on: human retinal endothelial cells (HREC); assay: Testing 7: VEGF-induced HREC proliferation (MTS assay), integrin antagonists and Lucentis alone and in combination; type: cell-based
Experimental: HREC were first cultured overnight in a 96-well plate coated with fibronectin. The next day medium containing different agents as shown in Tables 14 and 15 was pre-incubated for 1 hour before being added into appropriate wells. The cells were cultured at 37° C., 5% CO2, and 95% humidity for another 3 days. After that, cell proliferation was estimated by the MTS assay. In the first study we used VEGF 10 ng/mL (about EC80 in study PH08169), Lucentis® 1 ng/mL (about EC25 in study PH09038) and 5 doses of BOL-303055-X. Normal IgG (1 ng/ml) was also added to groups containing no Lucentis®. All groups contained the same amount of 0.1% DMSO. In the second study, all five compounds (BOL-303049-X, BOL-303050-X, BOL-303051-X, BOL-303054-X and BOL-303055-X) were tested at 1 nM with other conditions remaining the same.
A 96-well plate was coated with human fibronectin (10 μg/mL) for 5 hours at 37° C. HREC were washed with HBSS buffer once, tripsinized and re-suspended in 10% FBS CS-C medium at 18,000 cells/mL. Cells (200 μL) were added to the plate and cultured overnight at 37° C., 5% CO2, and 95% humidity. Next day, the cells were serum-starved for 2 hours.
For study I, VEGF at 10 ng/mL, Lucentis® at 1 ng/mL and BOL-303055-X at 0.1, 0.3, 1, 3 and 10 nM were prepared in 1% FBS CS medium as shown in Table 14. Normal IgG (1 ng/mL) were added to groups containing no Lucentis®. All medium solutions were incubated for 1 hour at 37° C. After carefully medium was aspirated, 200 μL of the medium containing different agents were then added into appropriate wells. The cells were cultured for another 3 days. For the study II as shown in the Table 15, five compounds were tested at 1 nM with other conditions remaining the same as study I.
At the end of incubation, the medium was carefully aspirated from cells and 120 μl of MTS working solution was added into all wells including blank wells (without cells). The plates were incubated at 37° C., 5% CO2, and 95% humidity for 1 hour and then read by a plate reader at 490 nm wavelength.
Median optical density (OD) was generated from different groups. Data were expressed as mean±SEM of the OD values. Statistical analysis was performed using three-way ANOVA after Box-Cox transformations, and p<0.05 was considered statistically significant. To evaluate whether the effects of the combinations were either synergistic or additive, net inhibitions were calculated by subtracting the basal levels in the presence of VEGF from the individual treatments (Lucentis® and Integrin blockers) and the combinations. […] Data analysis was performed utilizing the statistical analysis software JMP (SAS Institute, Cary, N.C.).

[3] = study II, compound 1 nM, Lucentis 1 ng/mL

| Structure (SMILES) | Vitreal cell score: number of eyes with grade 0 ([1]; Day 3) | Vitreal cell score: number of eyes with grade 1 ([1]; Day 3) | Vitreal cell score: number of eyes with grade 2 ([1]; Day 3) | Vitreal cell score: number of eyes with grade 3 ([1]; Day 3) | Vitreal cell score: number of eyes with grade 4 ([1]; Day 3) | Vitreal cell score: number of eyes with grade Trace ([1]; Day 3) | Vitreal cell score: number of eyes with grade 0 ([1]; Day 7) | Vitreal cell score: number of eyes with grade 1 ([1]; Day 7) | Vitreal cell score: number of eyes with grade 2 ([1]; Day 7) | Vitreal cell score: number of eyes with grade 3 ([1]; Day 7) | Vitreal cell score: number of eyes with grade 4 ([1]; Day 7) | Vitreal cell score: number of eyes with grade Trace ([1]; Day 7) | Vitreal cell score: number of eyes with grade 0 ([1]; Day 15) | Vitreal cell score: number of eyes with grade 1 ([1]; Day 15) | Vitreal cell score: number of eyes with grade 2 ([1]; Day 15) | Vitreal cell score: number of eyes with grade 3 ([1]; Day 15) | Vitreal cell score: number of eyes with grade 4 ([1]; Day 15) | Vitreal cell score: number of eyes with grade Trace ([1]; Day 15) | Vitreal cell score: number of eyes with grade 0 ([1]; Day 31) | Vitreal cell score: number of eyes with grade 1 ([1]; Day 31) | further results |
| --- | --- | --- | --- | --- | --- | --- | --- | --- | --- | --- | --- | --- | --- | --- | --- | --- | --- | --- | --- | --- | --- |
| COc1ccc(S(=O)(=O)N[C@@H](CNc2nc(C)nc(N3CCC(c4ccc5c(n4)NCCC5)CC3)c2C)C(=O)O)cc1 [BOL-303050-X] | 8 | 5 | 0 | 0 | 1 | 4 | 1 | 4 | 6 | 2 | 5 | 0 | 1 | 8 | 2 | 1 | 4 | 2 | 0 | 2 | Vitreal cell score: number of eyes with grade 2 ([1]; Day 31): 1; Vitreal cell score: number of eyes with grade 3 ([1]; Day 31): 1; Vitreal cell score: number of eyes with grade 4 ([1]; Day 31): 11; Vitreal cell score: number of eyes with grade Trace ([1]; Day 31): 0; Vitreal cell score: number of eyes with grade 0 ([1]; Day 38): 0; Vitreal cell score: number of eyes with grade 1 ([1]; Day 38): 1; Vitreal cell score: number of eyes with grade 2 ([1]; Day 38): 0; Vitreal cell score: number of eyes with grade 3 ([1]; Day 38): 3; Vitreal cell score: number of eyes with grade 4 ([1]; Day 38): 12; Vitreal cell score: number of eyes with grade Trace ([1]; Day 38): 0; Drug-related ocular findings ([1]; oil formulation, 1.5 mg/eye intravitreal): No drug-related ocular findings were reported; Combination effect with Lucentis on VEGF-induced HREC proliferation (synergistic/additive) [2, 3]: additive effects |
| COc1c(NC[C@H](NC(=O)OCc2ccccc2)C(=O)O)ncnc1N1CCC(c2ccc3c(n2)NCCC3)CC1 [BOL-303054-X] | 9 | 1 | 1 | 0 | 0 | 5 | 2 | 2 | 2 | 4 | 6 | 2 | 0 | 6 | 2 | 0 | 8 | 0 | 0 | 1 | Vitreal cell score: number of eyes with grade 2 ([1]; Day 31): 8; Vitreal cell score: number of eyes with grade 3 ([1]; Day 31): 2; Vitreal cell score: number of eyes with grade 4 ([1]; Day 31): 6; Vitreal cell score: number of eyes with grade Trace ([1]; Day 31): 1; Vitreal cell score: number of eyes with grade 0 ([1]; Day 38): 0; Vitreal cell score: number of eyes with grade 1 ([1]; Day 38): 0; Vitreal cell score: number of eyes with grade 2 ([1]; Day 38): 3; Vitreal cell score: number of eyes with grade 3 ([1]; Day 38): 2; Vitreal cell score: number of eyes with grade 4 ([1]; Day 38): 13; Vitreal cell score: number of eyes with grade Trace ([1]; Day 38): 0; Anterior chamber inflammation ([1]; left eye of one monkey that developed endophthalmitis on day 29, until day 38): Moderate anterior chamber inflammation; Combination effect with Lucentis on VEGF-induced HREC proliferation (synergistic/additive) [2, 3]: additive effects |
| CCc1nc(NC[C@H](NC(=O)OCc2ccccc2)C(=O)O)c(C)c(N2CCC(c3ccc4c(n3)NCCC4)CC2)n1 [BOL-303055-X] | 11 | 1 | 0 | 0 | 0 | 6 | 0 | 3 | 6 | 3 | 1 | 5 | 0 | 7 | 3 | 1 | 3 | 4 | 5 | 2 | Vitreal cell score: number of eyes with grade 2 ([1]; Day 31): 4; Vitreal cell score: number of eyes with grade 3 ([1]; Day 31): 0; Vitreal cell score: number of eyes with grade 4 ([1]; Day 31): 0; Vitreal cell score: number of eyes with grade Trace ([1]; Day 31): 7; Vitreal cell score: number of eyes with grade 0 ([1]; Day 38): 6; Vitreal cell score: number of eyes with grade 1 ([1]; Day 38): 5; Vitreal cell score: number of eyes with grade 2 ([1]; Day 38): 0; Vitreal cell score: number of eyes with grade 3 ([1]; Day 38): 0; Vitreal cell score: number of eyes with grade 4 ([1]; Day 38): 0; Vitreal cell score: number of eyes with grade Trace ([1]; Day 38): 7; HREC proliferation without VEGF ([2]; basal and Lucentis-treatment conditions, Lucentis 1 ng/mL, BOL-303055-X 0.1-10 nM, other compounds 1 nM): reduced HREC proliferation in a statistically significant and dose-dependent manner; Inhibiting effect on VEGF-induced HREC proliferation in the presence of Lucentis versus without ([2]; study I, 0.1, 0.3, 1, 3 and 10 nM, Lucentis 1 ng/mL): significantly greater inhibiting effect; Inhibition of VEGF-induced HREC proliferation, compound alone ([2]; study I, 0.1-10 nM, VEGF 10 ng/mL): inhibited VEGF-induced HREC proliferation in a dose-dependent manner; Combination effect with Lucentis on VEGF-induced HREC proliferation (synergistic/additive) ([2]; study I, compound 0.1 nM, Lucentis 1 ng/mL): synergistic effects; Combination effect with Lucentis on VEGF-induced HREC proliferation (synergistic/additive) ([2]; study I, compound 0.3 nM, Lucentis 1 ng/mL): additive; Combination effect with Lucentis on VEGF-induced HREC proliferation (synergistic/additive) ([2]; study I, compound 1, 3 and 10 nM, Lucentis 1 ng/mL): additive; Combination effect with Lucentis on VEGF-induced HREC proliferation (synergistic/additive) [2, 3]: additive effects |
